Results from ChEMBL document CHEMBL1201862, “PubChem BioAssay data set” (2004).
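Tested at 5 concentrations; 48 h exposure; 96-well plates; endpoints linearly interpolated, else capped at highest concentration. GI50 marks 50% less growth.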 Activity calls are given as the source filed them. Rule as the data show it: active = GI50 up to about 1.1 µM and inactive = higher.

Key:
Experiment in all cases: NCI anticancer screen, dose series, 48 h
SR = tested on: SR
UACC-62 = tested on: UACC-62
SK-MEL-5 = tested on: SK-MEL-5
BT-549 = tested on: BT-549
IGROV-1 = tested on: IGROV-1
TK-10 = tested on: TK-10
OVCAR-5 = tested on: OVCAR-5
UO-31 = tested on: UO-31
MCF7 = tested on: MCF7
U-251 = tested on: U-251
NCI-H460 = tested on: NCI-H460
SN12C = tested on: SN12C
NCI-H23 = tested on: NCI-H23
HOP-92 = tested on: HOP-92
DU-145 = tested on: DU-145
OVCAR-4 = tested on: OVCAR-4
CAKI-1 = tested on: CAKI-1
NCI/ADR-RES = tested on: NCI/ADR-RES
SNB-19 = tested on: SNB-19
EKVX = tested on: EKVX
K562 = tested on: K562
SK-MEL-28 = tested on: SK-MEL-28
RPMI-8226 = tested on: RPMI-8226
ACHN = tested on: ACHN
HL-60 = tested on: HL-60
LOX IMVI = tested on: LOX IMVI
MDA-MB-231 = tested on: MDA-MB-231
UACC-257 = tested on: UACC-257
SF-539 = tested on: SF-539
A498 = tested on: A498
MDA-N = tested on: MDA-N
HCT-116 = tested on: HCT-116
OVCAR-3 = tested on: OVCAR-3
HCC 2998 = tested on: HCC 2998
SW-620 = tested on: SW-620
MDA-MB-435 = tested on: MDA-MB-435
M14 = tested on: M14
786-0 = tested on: 786-0
SF-268 = tested on: SF-268
SF-295 = tested on: SF-295
NCI-H522 = tested on: NCI-H522
Malme-3M = tested on: Malme-3M
RXF 393 = tested on: RXF 393
COLO 205 = tested on: COLO 205
NCI-H226 = tested on: NCI-H226
MOLT-4 = tested on: MOLT-4
Hs-578T = tested on: Hs-578T
A549 = tested on: A549
HOP-62 = tested on: HOP-62
HCT-15 = tested on: HCT-15
OVCAR-8 = tested on: OVCAR-8
SK-MEL-2 = tested on: SK-MEL-2
PC-3 = tested on: PC-3
KM12 = tested on: KM12
HT-29 = tested on: HT-29
SK-OV-3 = tested on: SK-OV-3
CCRF-CEM = tested on: CCRF-CEM
SNB-75 = tested on: SNB-75

**Q.** Which results are given for `CC(C)N1[C@@H]2CCCC[C@H]2N(C(C)C)P1(=O)C(=O)/C=C/c1ccccc1`?
**A.** GI50 (SR): 2.83 µM (inactive); GI50 (UACC-62): 2.57 µM (inactive); GI50 (SK-MEL-5): 1.5 µM (inactive); GI50 (BT-549): 2.91 µM (inactive); GI50 (IGROV-1): 1.98 µM (inactive); GI50 (TK-10): 3.51 µM (inactive); GI50 (OVCAR-5): 2.37 µM (inactive); GI50 (UO-31): 1.64 µM (inactive); GI50 (MCF7): 3.5 µM (inactive); GI50 (U-251): 4.08 µM (inactive); GI50 (NCI-H460): 2.97 µM (inactive); GI50 (SN12C): 1.99 µM (inactive); GI50 (NCI-H23): 2.16 µM (inactive); GI50 (HOP-92): 1.76 µM (inactive); GI50 (DU-145): 2.08 µM (inactive); GI50 (OVCAR-4): 1.67 µM (inactive); GI50 (CAKI-1): 2.54 µM (inactive); GI50 (NCI/ADR-RES): 2.02 µM (inactive); GI50 (SNB-19): 5.52 µM (inactive); GI50 (EKVX): 3.54 µM (inactive); GI50 (K562): 2.52 µM (inactive); GI50 (SK-MEL-28): 2.37 µM (inactive); GI50 (RPMI-8226): 2.49 µM (inactive); GI50 (ACHN): 2.69 µM (inactive); GI50 (HL-60): 1.65 µM (inactive); GI50 (LOX IMVI): 2.03 µM (inactive); GI50 (MDA-MB-231): 2.98 µM (inactive); GI50 (UACC-257): 3.08 µM (inactive); GI50 (SF-539): 1.82 µM (inactive); GI50 (A498): 2.75 µM (inactive); GI50 (MDA-N): 1.83 µM (inactive); GI50 (HCT-116): 1.96 µM (inactive); GI50 (OVCAR-3): 2.38 µM (inactive); GI50 (HCC 2998): 2.18 µM (inactive); GI50 (SW-620): 2.58 µM (inactive); GI50 (MDA-MB-435): 1.76 µM (inactive); GI50 (M14): 2.02 µM (inactive); GI50 (786-0): 1.81 µM (inactive); GI50 (SF-268): 2.44 µM (inactive); GI50 (SF-295): 10.6 µM (inactive); GI50 (NCI-H522): 1.53 µM (inactive); GI50 (Malme-3M): 1 µM (active); GI50 (RXF 393): 1.69 µM (inactive); GI50 (COLO 205): 1.91 µM (inactive); GI50 (NCI-H226): 3.52 µM (inactive); GI50 (MOLT-4): 2.7 µM (inactive); GI50 (Hs-578T): 1.71 µM (inactive); GI50 (A549): 3.35 µM (inactive); GI50 (HOP-62): 3.88 µM (inactive); GI50 (HCT-15): 1.92 µM; GI50 (OVCAR-8): 1.73 µM (inactive); GI50 (SK-MEL-2): 2.72 µM (inactive); GI50 (PC-3): 4.18 µM (inactive); GI50 (KM12): 3.23 µM (inactive); GI50 (HT-29): 2.79 µM (inactive)

**Q.** What does the source list for `O=C1C=C(Sc2ccccc2)c2nccc3c2c1nc1ccccc13`?
**A.** GI50 (SR): 5.92 µM (inactive); GI50 (UACC-62): 15.5 µM (inactive); GI50 (BT-549): 16 µM (inactive); GI50 (IGROV-1): 11.2 µM (inactive); GI50 (TK-10): 31.1 µM (inactive); GI50 (OVCAR-5): 32.4 µM (inactive); GI50 (UO-31): 12.8 µM (inactive); GI50 (MCF7): 14.9 µM (inactive); GI50 (U-251): 18.5 µM (inactive); GI50 (NCI-H460): 23.6 µM (inactive); GI50 (SN12C): 17.8 µM (inactive); GI50 (NCI-H23): 23.6 µM (inactive); GI50 (HOP-92): 17.9 µM (inactive); GI50 (SK-OV-3): 80 µM (inactive); GI50 (DU-145): 40.9 µM (inactive); GI50 (OVCAR-4): 16.1 µM (inactive); GI50 (CAKI-1): 44.2 µM (inactive); GI50 (NCI/ADR-RES): 21.8 µM (inactive); GI50 (SNB-19): 37.2 µM (inactive); GI50 (EKVX): 20.7 µM (inactive); GI50 (K562): 0.0234 µM (active); GI50 (SK-MEL-28): 19.3 µM (inactive); GI50 (RPMI-8226): 28.1 µM (inactive); GI50 (ACHN): 19.3 µM (inactive); GI50 (HL-60): 2.08 µM (inactive); GI50 (LOX IMVI): 11.8 µM (inactive); GI50 (MDA-MB-231): 20 µM (inactive); GI50 (UACC-257): 15.5 µM (inactive); GI50 (SF-539): 17.1 µM (inactive); GI50 (MDA-N): 16.9 µM (inactive); GI50 (HCT-116): 15.1 µM (inactive); GI50 (OVCAR-3): 3.35 µM (inactive); GI50 (HCC 2998): 17.5 µM (inactive); GI50 (SW-620): 14.8 µM (inactive); GI50 (MDA-MB-435): 16.9 µM (inactive); GI50 (M14): 13.3 µM (inactive); GI50 (CCRF-CEM): 3.13 µM (inactive); GI50 (786-0): 16.9 µM (inactive); GI50 (SF-268): 12.4 µM (inactive); GI50 (SF-295): 29.4 µM (inactive); GI50 (NCI-H522): 2.33 µM (inactive); GI50 (Malme-3M): 12.2 µM (inactive); GI50 (SNB-75): 33.3 µM (inactive); GI50 (COLO 205): 16.6 µM (inactive); GI50 (NCI-H226): 72.6 µM (inactive); GI50 (MOLT-4): 4.27 µM (inactive); GI50 (Hs-578T): 15.8 µM (inactive); GI50 (A549): 31.5 µM (inactive); GI50 (HOP-62): 14 µM (inactive); GI50 (HCT-15): 12.2 µM; GI50 (OVCAR-8): 18.1 µM (inactive); GI50 (SK-MEL-2): 14.2 µM (inactive); GI50 (PC-3): 13.3 µM (inactive); GI50 (KM12): 16.7 µM (inactive); GI50 (HT-29): 11.2 µM (inactive)
